Assay results reported in article PMC12123366, “Effect of urea and squaramide IMPDH inhibitors on C. parvum: in vitro trial design impacts the assessment of drug efficacy” (International Journal for Parasitology: Drugs and Drug …, 2025).
Read-outs that look alike come from different tables or passages of the source.

Legend:
[1] = CytoTox 96 Non-Radioactive Cytotoxicity Assay; assay type: cell-based, Human; conditions: human; HCT-8 cells, 10 µM
Procedure: (§1) HCT-8 cell lines (Human ileocecal adenocarcinoma) were purchased from The European Collection of Authenticated Cell Cultures (ECACC) under catalogue number No 90032006) and maintained with regular subculturing in a growth medium consisting in a RPMI 1640 medium supplemented with 1 mM sodium pyruvate, 2 mM l-glutamine, 10 % (vol/vol) of heat-inactivated fetal calf serum, 100 U/mL of penicillin and 100 μg/mL of streptomycin. Cells were grown in an incubator at 37 °C with 5 % (vol/vol) CO2 until monolayers reached 80–90 % confluency. Cells were cultivated in 96-well format plate for molecular analysis and in Lab-Tek™ Chamber Slides for microscopic analysis. 50,000 cells were seeded and incubated during 24 h (until confluency) before infection.
(§2) The compounds (2 mg/mL in DMSO) were diluted to 500 μM and serially diluted in maintenance medium. The cytotoxicity of the compounds was assessed using the CytoTox 96® Non-Radioactive Cytotoxicity Assay (Promega, G1790) in accordance with the manufacturer's protocol.
An initial screening experiment was conducted on the full library to evaluate the cytotoxicity effects on HCT-8 cells. Nitrophenylurea 12 was identified as being cytotoxic so was not progressed further (See Supporting Information). In total, 21 candidates were assessed for their ability to inhibit C. parvum replication at a concentration of 10 μM. Each compound was added at the start of the infection of HCT-8 cells (T0) and remained in the culture for 48 h post infection (hpi). Parasitic quantification was then performed using a molecular method (qPCR). Of the 21 compounds tested, nine were effective inhibitors, reducing parasite proliferation by 80 % or more (Fig. 6). A clear trend emerged with all of the benzyl-substituted ureas 6–10 displaying poor inhibitory activity, regardless of the attached heteroaryl substituent. […] Two exceptions to this were imidazole-containing analogues 18 and 19. […] Among the squaramide series, the results were highly dependent on the nature of the substituent, ranging from high (e.g. ketone 29, furan 32), medium (e.g. 3-pyrazole 30) to low (e.g. 4-pyrazole 31) anti-cryptosporidial activity.

C. parvum [2] = assay: Inhibition of C. parvum replication in infected HCT-8 cells, parasite quantification by qPCR; assay type: cell-based, Cryptosporidium parvum (Iowa strain) in human HCT-8 cells; conditions: for inhibition at 10 µM / IC50: Cryptosporidium parvum, HCT-8; for inhibition at 10 µM: added at start of infection (T0), 48 hpi, mean ± SD (n = 3 wells), read-out: inhibition rate of C. parvum replication; for inhibition at 10 µM / anti-cryptosporidial activity (in words): 10 μM; for anti-cryptosporidial activity (in words): added at T0, 48 hpi
Procedure: as §1
(§3) C. parvum oocysts of “Iowa” strain was purchased from Waterborne Inc. and stored in PBS at 4 °C. A ratio of one oocyst per cell was used to infect HCT-8 cell. Oocysts suspension was incubated with 10 % of a solution (vol/vol) containing 0.5 % sodium hypochlorite for 10 min at 4 °C. After a washing step by centrifugation at 1800g for 15 min at 4 °C, oocysts were incubated in acidified water (pH 2.4) containing 0.025 % (wt/vol) of trypsin, at 37 °C for 20 min, to trigger excystation (infectivity assay developed by [Keegan et al., 2003]). After a third centrifugation step at 1800 g for 10 min, oocysts were suspended in a maintenance medium. The maintenance medium consisted of RPMI 1640 medium with 2 mM l-glutamine, 5 mM glucose, 0.5 μM folic acid, 7 μM 4-amino-benzoic acid, 0.1 μM calcium pantothenate, 50 nM ascorbic acid, 2 % (vol/vol) heat inactivated fetal calf serum and 100 U/mL of streptomycin/penicillin. Before oocyst inoculation, the growth medium was switched with maintenance medium. Triggered oocysts were finally added on monolayers and incubated during 48 h at 37 °C in a 5 % (vol/vol) CO2 atmosphere.
as §2
The COWP gene (GenBank no. AF248743) was amplified by qPCR following the previously described protocol ([Guy et al., 2003]), and the parasitic concentration was determined using the standard range of C. parvum oocyst concentrations. Briefly, serial dilutions from a pure C. parvum oocyst suspension were made starting from a stock solution of 5 × 10^7 oocysts (4 × 10^5 – 2 × 10^5 – 1 × 10^5 – […]–2.5 × 10^3–1.25 × 10^3 oocysts) and the standard curve for quantifying parasites was created to obtain a correlation between Cq values and the Log of concentration.
At the end of the experiment, supernatants from the C. parvum-infected cell cultures were collected. The cell layers were then washed (1x PBS), detached using trypsin (0.25 %), and centrifuged (10,000×g, 10 min). The resulting cell pellet was re-suspended in 150–200 μL of sterile 1x PBS and stored at −20 °C for later DNA extraction. DNA extraction of C. parvum was performed using the Purelink™ Microbiome Purification Kit (Invitrogen™) following the manufacturer's protocol “Transport Media and Microbial Culture Samples” ([Invitrogen, 2015]).
FRePCR reactions were formulated to a volume of 25 μL and comprised of 1.25 μL of primers (10 μM), 0.05 μL probe (100 μM), 12.5 μL Master Mix 2X, LightCycler 480 Probes Master (ref. 04707494001, Roche), 4.95 μL H2O nuclease-free and 5 μL of DNA template. Quantitative PCR was run on a CFX96 real time PCR system (BioRad) with an initial step of activation (10 min 95 °C) following by 40 cycles with cycling conditions as follows: 95 °C for 10 s, 60 °C for 1 min. BioRad CFX manager software was used to analyse the data. Samples were considered negative if Cq ≥ 40.
A common way of defining a 50 % response is to use a mathematical model like the 4-parameter logistic model (4 PL) ([Sebaugh, 2011]). […]

C. parvum [3] = assay: Quantification of C. parvum development in HCT-8 cells by immunofluorescence microscopy; assay type: cell-based, Cryptosporidium parvum (Iowa strain) in human HCT-8 cells; conditions: for effect on distribution of parasite area: 7.5 μM or 15 μM, added at 30 hpi until 48 hpi; for reduction in parasite quantification: 7.5 μM, added at 30 hpi, until 48 hpi, fluorescence microscopy
Procedure: as §1, §3
After aspiration of the supernatant from the Nunc™ Lab-Tek™ Chamber slide wells, cells were rinsed with PBS 1X. A fixation step was then performed using methanol during 8 min at 4 °C. Cryptosporidium developmental forms were labelled with a polyclonal IgG antibodies reaction kit tagged with Cy3 (Sporo-Glo™, Waterborne Inc.) and oocysts were labelled with FL-Crypt-a-Glo™, a fluorescein-labelled mouse monoclonal antibody made to oocyst outer wall antigenic sites (epitopes) of C. parvum. Antibodies were 1/20th diluted and incubated on cells for 1 h at room temperature. DNA was labelled with Hoechst for 5 min at room temperature. Slides were then coverslipped with a no fading mounting medium (Waterborne Inc.) and observed with a Leica DMi8 microscope. Each dilution was performed in triplicate and, for each well, ten images were taken at 400× magnification. Parasite quantification was carried out automatically using the StarDist neural network, which was specifically trained to detect and quantify C. parvum parasites.
To confirm our initial findings, we employed an alternative method using immunofluorescence microscopy to quantify C. parvum development in the presence of inhibitors (Fig. S1). […] The results corroborated our initial screening data, confirming the high efficacy of all tested chloronitrophenyl urea analogues, except for imidazole derivatives 18 and 19.
To test this hypothesis, increasing concentrations of squaramide 32 (i.e. 0, 2, 4 and 8 μM) were applied at different infection times: at 0 hpi (hours post infection), to assess the impact on parasite invasion; at 4 hpi, to examine the effect on the early stages of intracellular development; and at 30 hpi, to evaluate the influence on late stage intracellular development. The microscopic images in Fig. 7 illustrate the effect of 32 when applied at the onset of infection and at 30 hpi. Using fluorescent antibodies, the intracellular development of C. parvum is highlighted by green fluorescence, which allows for quantification of the number of parasites per image.

[4] = compounds at 0, 3, 6 and 9 μM added at t0 and left until 48 hpi, qPCR, read-out: IC50

CC(C)(NC(=O)NCc1ccccc1)c1cccc(-c2cc[nH]n2)c1 [Compound 6]
viability at 10 µM [1]: 97%

CC(C)(NC(=O)NCc1ccccc1)c1cccc(-c2cn[nH]c2)c1 [Compound 7]
viability at 10 µM [1]: 96.7%

CC(C)(NC(=O)NCc1ccccc1)c1cccc(-c2ccco2)c1 [Compound 8]
viability at 10 µM [1]: 95.9%

CC(C)(NC(=O)NCc1ccccc1)c1cccc(-c2cccs2)c1 [Compound 9]
viability at 10 µM [1]: 95.4%

CC(C)(NC(=O)NCc1ccccc1)c1cccc(-c2ccccc2)c1 [Compound 10]
viability at 10 µM [1]: 97.4%

CCOC(=O)n1ccc(-c2cccc(C(C)(C)NC(=O)Nc3ccc(Cl)c([N+](=O)[O-])c3)c2)n1 [Compound 13]
viability at 10 µM [1]: 97.2%
inhibition at 10 µM (C. parvum [2]; qPCR): 87.5 ± 6.4%
IC50 (C. parvum [2]; [4]): 5.44 µM

CC(C)(NC(=O)Nc1ccc(Cl)c([N+](=O)[O-])c1)c1cccc(-c2cc[nH]n2)c1 [Compound 14]
viability at 10 µM [1]: 97.6%
inhibition at 10 µM (C. parvum [2]; qPCR): 85.1 ± 3.8%
IC50 (C. parvum [2]; [4]): 6.19 µM

CCOC(=O)n1cc(-c2cccc(C(C)(C)NC(=O)Nc3ccc(Cl)c([N+](=O)[O-])c3)c2)cn1 [Compound 15]
viability at 10 µM [1]: 97.5%
inhibition at 10 µM (C. parvum [2]; qPCR): 71.7 ± 1.5%
IC50 (C. parvum [2]; [4]): 5.98 µM

CC(C)(NC(=O)Nc1ccc(Cl)c([N+](=O)[O-])c1)c1cccc(-c2cn[nH]c2)c1 [Compound 16]
viability at 10 µM [1]: 96.4%
inhibition at 10 µM (C. parvum [2]; qPCR): 64.3 ± 3.9%
IC50 (C. parvum [2]; [4]): 5.32 µM

CC(C)(NC(=O)Nc1ccc(Cl)c([N+](=O)[O-])c1)c1cccc(-c2nccn2Cc2ccccc2)c1 [Compound 17]
viability at 10 µM [1]: 97.3%
inhibition at 10 µM (C. parvum [2]; qPCR): 88.2 ± 1.1%
IC50 (C. parvum [2]; [4]): 4.69 µM

CC(C)(NC(=O)Nc1ccc(Cl)c([N+](=O)[O-])c1)c1cccc(-c2cn(C(c3ccccc3)(c3ccccc3)c3ccccc3)cn2)c1 [Compound 18]
viability at 10 µM [1]: 97.3%
inhibition at 10 µM (C. parvum [2]; qPCR): ≤ 50%

CC(C)(NC(=O)Nc1ccc(Cl)c([N+](=O)[O-])c1)c1cccc(-c2c[nH]cn2)c1 [Compound 19]
viability at 10 µM [1]: 97.4%
inhibition at 10 µM (C. parvum [2]; qPCR): ≤ 50%

CC(C)(NC(=O)Nc1ccc(Cl)c([N+](=O)[O-])c1)c1cccc(-c2nccs2)c1 [Compound 20]
viability at 10 µM [1]: 98.4%
inhibition at 10 µM (C. parvum [2]; qPCR): 85.7 ± 2.2%
IC50 (C. parvum [2]; [4]): 4.51 µM

CC(C)(NC(=O)Nc1ccc(Cl)c([N+](=O)[O-])c1)c1cccc(-c2ccco2)c1 [Compound 21]
viability at 10 µM [1]: 98.3%
inhibition at 10 µM (C. parvum [2]; qPCR): 64 ± 1%
IC50 (C. parvum [2]; [4]): 6.19 µM

CC(C)(NC(=O)Nc1ccc(Cl)c([N+](=O)[O-])c1)c1cccc(-c2cccs2)c1 [Compound 22]
viability at 10 µM [1]: 98.5%
inhibition at 10 µM (C. parvum [2]; qPCR): 86.6 ± 2.6%
IC50 (C. parvum [2]; [4]): 3.77 µM

CCOc1ncccc1-c1cccc(C(C)(C)NC(=O)Nc2ccc(Cl)c([N+](=O)[O-])c2)c1 [Compound 23]
viability at 10 µM [1]: 94.1%
effect on distribution of parasite area (C. parvum [3]): successfully inhibits larger parasites
reduction in parasite quantification (C. parvum [3]): 32%
inhibition at 10 µM (C. parvum [2]; qPCR): 88 ± 3.5%
IC50 (C. parvum [2]; [4]): 3.23 µM

CC(C)(NC(=O)Nc1ccc(Cl)c([N+](=O)[O-])c1)c1cccc(-c2cccnc2F)c1 [Compound 24]
viability at 10 µM [1]: 96.8%
effect on distribution of parasite area (C. parvum [3]): dose-dependent effect
reduction in parasite quantification (C. parvum [3]): 10.5%
inhibition at 10 µM (C. parvum [2]; qPCR): 83.4 ± 1.5%
IC50 (C. parvum [2]; [4]): 3.64 µM

CC(=O)c1cccc(C(C)(C)Nc2c(Nc3ccc(Cl)c([N+](=O)[O-])c3)c(=O)c2=O)c1 [Compound 29, 3-((2-(3-acetylphenyl)propan-2-yl)amino)-4-((4-chloro-3-nitrophenyl)amino)cyclobut-3-ene-1,2-dione]
viability at 10 µM [1]: 97.2%
anti-cryptosporidial activity (in words) (C. parvum [2]; qPCR): high
inhibition at 10 µM (C. parvum [2]; qPCR): 87.7 ± 1.7%
IC50 (C. parvum [2]; [4]): 3.59 µM

CC(C)(Nc1c(Nc2ccc(Cl)c([N+](=O)[O-])c2)c(=O)c1=O)c1cccc(-c2cc[nH]n2)c1 [Compound 30, 3-((2-(3-(1H-Pyrazol-3-yl)phenyl)propan-2-yl)amino)-4-((4-chloro-3-nitrophenyl)amino)cyclobut-3-ene-1,2-dione]
viability at 10 µM [1]: 98.2%
anti-cryptosporidial activity (in words) (C. parvum [2]; qPCR): medium

NC[C@@H]1O[C@H](O[C@H]2[C@@H](O)[C@H](O[C@@H]3[C@@H](O)[C@H](N)C[C@H](N)[C@H]3O[C@H]3O[C@H](CO)[C@@H](O)[C@H](O)[C@H]3N)O[C@@H]2CO)[C@H](N)[C@@H](O)[C@@H]1O [Paromomycin, reference compound]
IC50 (C. parvum [2]; previous experimentation based on qPCR, standard Cryptosporidium inhibitor in in vitro assays, read-out: mean IC50): 511 µM
